Read-outs that look alike come from different tables or passages of the source.
Legend:
[1] = system: Isogenic HCT-116 colon cancer cell lines; assay: cells; assay type: cell-based; details: cell growth;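 also: cells grown in 96-well plates in McCoy's 5A medium with 10% FBS, exposed to compound for 4 days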
Protocol: Cells were seeded in 96-well flat bottom cell culture plates at a density of 2−3×10^3 cells/well with compounds and incubated for 4 days.

[2] = Pharmacokinetic studies in rats; assay type: in vivo, rat
Protocol: Pharmacokinetic studies on MDM2 inhibitors were carried out in rat. For comparison, the MDM2 inhibitor, AT-219, was also studied.

[3] = In vitro microsomal stability, human; assay type: in vitro ADME; details: for Microsomal stability, % remaining: Human Microsome, same batch; for half-life: human, liver microsomes
[4] = system: cancer cell lines with wild-type p53 / mutated or deleted p53 (ATCC); assay: Cell growth assay (WST-8), other cancer cell lines; assay type: cell-based
[5] = In vitro microsomal stability, rat; assay type: in vitro ADME; details: for Microsomal stability, % remaining: Rat Microsome, same batch; for microsomal stability (in words) / % of compound remaining when incubated in rat liver microsomes with NADPH: rat liver microsomes; for half-life: rat, liver microsomes
[6] = biological target: recombinant human His-tagged MDM2 protein (residues 1-118) (Homo sapiens (Human), UniProt Q00987); assay: Fluorescence-polarization MDM2 binding assay; details: for IC50: Table 19A, FP binding assay, read-out: MDM2 IC50;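 as to all read-outs here: fluorescence polarization read after three hours of incubation in potassium phosphate buffer containing bovine gamma globulin and Triton X-100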
[7] = Homo sapiens, HCT-116, read-out: HCT-116 (p53-/-) IC50, Table 19A, HCT-116 p53-/-
[8] = Homo sapiens, HCT-116, read-out: HCT-116 (p53 wild-type) IC50, Table 19A, HCT-116 p53 wild-type
[9] = rat, plasma, male rats, oral dose 15 mg/kg
[10] = human liver microsomes with NADPH
[11] = Homo sapiens, LNCaP, Table 19A, LNCAP cells, p53 wild-type, cell growth, read-out: LNCAP (p53 wild-type) IC50
[12] = Homo sapiens, PC-3, Table 19A, PC-3 cells, deleted p53, cell growth, read-out: PC-3 (deleted p53) IC50
[13] = rat liver microsomes with NADPH
[14] = Homo sapiens, SJSA-1, Table 19A, SJSA-1 cells, p53 wild-type, cell growth, read-out: SJSA-1 (p53 wild-type) IC50

recombinant human His-tagged MDM2 protein (residues 1-118), sequence (Q00987 1-118): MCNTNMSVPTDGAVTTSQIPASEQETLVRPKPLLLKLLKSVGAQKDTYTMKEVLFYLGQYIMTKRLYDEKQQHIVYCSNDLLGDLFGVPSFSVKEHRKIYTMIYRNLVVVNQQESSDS

Structure (SMILES): CC(C)(C)C[C@H]1N[C@@H](C(=O)NCC[C@H](O)CN2CC[C@@H](O)C2)[C@H](c2cccc(Cl)c2)[C@@]12C(=O)Nc1cc(Cl)c(F)cc12 [MI-519-29]
- IC50 [1, 7]: > 10000 nM
- IC50 [1, 8]: < 5000 nM
- oral bioavailability / oral pharmacokinetics in rats (in words) ([2]; oral dosing, rats): much inferior oral pharmacokinetic parameters
- bioavailability [2, 9]: < 1%
- half-life [2, 9]: 414 ± 450 min
- AUC(0-t) ([2]; rat, plasma, male rats, oral dose 15 mg/kg, read-out: AUC(0-t)): 28000 ± 15000 ng·h/mL
- Cmax ([2]; rat, plasma, male rats, oral dose 15 mg/kg, read-out: Cmax): 51 ± 30 ng/mL
- Microsomal stability, % remaining ([3]; 0 min): 100.00%
- Microsomal stability, % remaining ([3]; 5 min): 70.67%
- Microsomal stability, % remaining ([3]; 10 min): 56.31%
- Microsomal stability, % remaining ([3]; 15 min): 49.52%
- Microsomal stability, % remaining ([3]; 30 min): 45.48%
- Microsomal stability, % remaining ([3]; 45 min): 40.08%
- Microsomal stability, % remaining ([3]; 60 min): 35.28%
- % of compound remaining when incubated in human liver microsomes with NADPH ([3]; human liver microsomes, 0 min): 100.00%
- % of compound remaining when incubated in human liver microsomes with NADPH ([3]; human liver microsomes, 5 min): 70.67%
- % of compound remaining when incubated in human liver microsomes with NADPH ([3]; human liver microsomes, 10 min): 56.31%
- % of compound remaining when incubated in human liver microsomes with NADPH ([3]; human liver microsomes, 15 min): 49.52%
- % of compound remaining when incubated in human liver microsomes with NADPH ([3]; human liver microsomes, 30 min): 45.48%
- % of compound remaining when incubated in human liver microsomes with NADPH ([3]; human liver microsomes, 45 min): 40.08%
- % of compound remaining when incubated in human liver microsomes with NADPH ([3]; human liver microsomes, 60 min): 35.28%
- half-life [3, 10]: 12.1 min
- IC50 [4, 11]: < 5000 nM
- IC50 [4, 12]: > 10000 nM
- Microsomal stability, % remaining ([5]; 0 min): 100.00%
- Microsomal stability, % remaining ([5]; 5 min): 93.42%
- Microsomal stability, % remaining ([5]; 10 min): 84.91%
- Microsomal stability, % remaining ([5]; 15 min): 82.81%
- Microsomal stability, % remaining ([5]; 30 min): 70.75%
- Microsomal stability, % remaining ([5]; 45 min): 71.89%
- Microsomal stability, % remaining ([5]; 60 min): 69.91%
- microsomal stability (in words) [5]: improved stability over MI-219
- % of compound remaining when incubated in rat liver microsomes with NADPH ([5]; 0 min): 100.00%
- % of compound remaining when incubated in rat liver microsomes with NADPH ([5]; 5 min): 93.42%
- % of compound remaining when incubated in rat liver microsomes with NADPH ([5]; 10 min): 84.91%
- % of compound remaining when incubated in rat liver microsomes with NADPH ([5]; 15 min): 82.81%
- % of compound remaining when incubated in rat liver microsomes with NADPH ([5]; 30 min): 70.75%
- % of compound remaining when incubated in rat liver microsomes with NADPH ([5]; 45 min): 71.89%
- % of compound remaining when incubated in rat liver microsomes with NADPH ([5]; 60 min): 69.91%
- half-life [5, 13]: 61.3 min
- IC50 [6]: < 1000 nM

Structure (SMILES): CC(C)(C)C[C@H]1N[C@@H](C(=O)N[C@H]2CC[C@@H](O)C2)[C@H](c2cccc(Cl)c2)[C@@]12C(=O)Nc1cc(Cl)c(F)cc12 [MI-519-27]
- IC50 [1, 7]: > 10000 nM
- IC50 [1, 8]: < 2000 nM
- % of compound remaining when incubated in human liver microsomes with NADPH ([3]; human liver microsomes, 0 min): 100.00%
- % of compound remaining when incubated in human liver microsomes with NADPH ([3]; human liver microsomes, 5 min): 52.96%
- % of compound remaining when incubated in human liver microsomes with NADPH ([3]; human liver microsomes, 10 min): 25.03%
- % of compound remaining when incubated in human liver microsomes with NADPH ([3]; human liver microsomes, 15 min): 11.38%
- % of compound remaining when incubated in human liver microsomes with NADPH ([3]; human liver microsomes, 30 min): 2.30%
- % of compound remaining when incubated in human liver microsomes with NADPH ([3]; human liver microsomes, 45 min): 1.42%
- % of compound remaining when incubated in human liver microsomes with NADPH ([3]; human liver microsomes, 60 min): 0.77%
- half-life [3, 10]: 5 min
- IC50 [4, 11]: < 2000 nM
- IC50 [4, 12]: > 5000 nM
- IC50 [4, 14]: < 3000 nM
- % of compound remaining when incubated in rat liver microsomes with NADPH ([5]; 0 min): 100.00%
- % of compound remaining when incubated in rat liver microsomes with NADPH ([5]; 5 min): 57.28%
- % of compound remaining when incubated in rat liver microsomes with NADPH ([5]; 10 min): 31.78%
- % of compound remaining when incubated in rat liver microsomes with NADPH ([5]; 15 min): 19.34%
- % of compound remaining when incubated in rat liver microsomes with NADPH ([5]; 30 min): 5.81%
- % of compound remaining when incubated in rat liver microsomes with NADPH ([5]; 45 min): 2.49%
- % of compound remaining when incubated in rat liver microsomes with NADPH ([5]; 60 min): 2.13%
- half-life [5, 13]: 6.05 min
- IC50 [6]: < 1000 nM

Structure (SMILES): CC(C)(C)C[C@H]1N[C@@H](C(=O)NC2CCC(NS(C)(=O)=O)CC2)[C@H](c2cccc(Cl)c2F)[C@@]12C(=O)Nc1cc(Cl)ccc12 (some centres unmarked) [MI-771]
- IC50 [1, 8]: 1000 ± 300 nM
- IC50 ([1]; read-out: HCT-116 (p53-/-) IC50, Table 19A, HCT-116 p53-/-): 12000 ± 1100 nM
- CLz ([2]; rat, IV, 5 mg/kg, plasma, parent compound): 36.7 mL/min/kg
- Vd ([2]; rat, plasma, iv, 5 mg/kg, rat, IV, 5 mg/kg, plasma, parent compound, read-out: Vz): 7.1 L/kg
- pharmacokinetic profile (in words) ([2]; rats, intravenous and oral routes of dosing): very poor pharmacokinetic profile
- microsomal stability (in words) ([3]; human liver microsomes): very poor microsomal stability
- t1/2 [3, 10]: 3.12 min
- % of compound remaining when incubated in human liver microsomes with NADPH ([3]; human liver microsomes, 0 min): 100.00%
- % of compound remaining when incubated in human liver microsomes with NADPH ([3]; human liver microsomes, 5 min): 27.98%
- % of compound remaining when incubated in human liver microsomes with NADPH ([3]; human liver microsomes, 10 min): 10.82%
- % of compound remaining when incubated in human liver microsomes with NADPH ([3]; human liver microsomes, 15 min): 4.30%
- % of compound remaining when incubated in human liver microsomes with NADPH ([3]; human liver microsomes, 30 min): 0.82%
- % of compound remaining when incubated in human liver microsomes with NADPH ([3]; human liver microsomes, 45 min): 0.00%
- % of compound remaining when incubated in human liver microsomes with NADPH ([3]; human liver microsomes, 60 min): 0.00%
- IC50 [4, 11]: 1100 ± 100 nM
- IC50 [4, 14]: 1200 ± 300 nM
- IC50 ([4]; Table 19A, PC-3 cells, deleted p53, cell growth, read-out: PC-3 (deleted p53) IC50): 13700 ± 4400 nM
- cell growth inhibition (in words) ([4]; cancer cell lines with wild-type p53): effectively inhibit cell growth
- microsomal stability (in words) [5]: very poor microsomal stability
- t1/2 [5, 13]: 2.69 min
- % of compound remaining when incubated in rat liver microsomes with NADPH ([5]; 0 min): 100.00%
- % of compound remaining when incubated in rat liver microsomes with NADPH ([5]; 5 min): 20.48%
- % of compound remaining when incubated in rat liver microsomes with NADPH ([5]; 10 min): 7.59%
- % of compound remaining when incubated in rat liver microsomes with NADPH ([5]; 15 min): 3.57%
- % of compound remaining when incubated in rat liver microsomes with NADPH ([5]; 30 min): 1.22%
- % of compound remaining when incubated in rat liver microsomes with NADPH ([5]; 45 min): 0.66%
- % of compound remaining when incubated in rat liver microsomes with NADPH ([5]; 60 min): 0.46%
- IC50 [6]: < 1000 nM
- binding to MDM2 (in words) ([6]; human MDM2 protein): high affinities
